Laboratory results as given in patent publication US20240310361A1, “METHOD OF […] RESPONSE OF CELL GROUP TO TEST SUBSTANCE” (CANON KABUSHIKI KAISHA, priority 2023, published 2024).

System: PBMCs
Experiment: Calcium-derived fluorescence check of immobilized Fluo-4-stained PBMCs with a calcium ionophore
Assay type: cell-based
Conditions: final concentration 1 μg/mL; PBMCs immobilized on BAM-modified glass bottom dish; FIG. 8/9
Protocol: It is found from FIG. 7 that the PBMCs can be immobilized under a dense state at positions subjected to the BAM modification. […] It was able to be recognized that the cells were immobilized so as to satisfy the condition. In addition, to recognize whether or not fluorescence derived from calcium was able to be observed with the immobilized cells, a calcium ionophore (A23187) was added at a final concentration of 1 μg/mL. […] FIG. 8 is a fluorescence image before the addition of the calcium ionophore, and FIG. 9 is a fluorescence image after the addition.
In this Example, the fluorescence images were acquired with an inverted microscope (TE200-U, manufactured by Nikon Corporation), a CCD camera (EM-CCD DIGITAL CAMERA/C9100-13, manufactured by Hamamatsu Photonics K.K.), and a filter set (excitation: from 450 nm to 490 nm, DM: 505 nm, fluorescence: 520 nm).
Floating PBMCs were recovered from the PBMCs cultured overnight, and 7 mL of PBS was added thereto, followed by centrifugation at 300 G for 8 minutes. The supernatant was removed, and the residue was suspended in 10 mL of PBS, followed by the counting of a cell number. […]

With `CNc1ccc2oc(C[C@H]3O[C@@]4(CC[C@H]3C)O[C@H]([C@H](C)C(=O)c3ccc[nH]3)[C@H](C)C[C@H]4C)nc2c1C(=O)O` [A23187] the “fluorescence derived from calcium in immobilized cells” value was “fluorescence was able to be observed in each of substantially all the immobilized PBMCs”.
